# Measurements as given in patent publication US10758634B2, “Compounds, compositions and associated methods using zirconium-89 in immuno-positron emission tomography” (Wake Forest University, priority 2016, dated 2020).
# “Also recorded” adds a separate entry of the source.
# What was measured:
# [1] = EDTA challenge, in vitro stability (radio-TLC); assay type: physicochemical; conditions: for order of ^89Zr complex stability: based upon EDTA challenge studies
# Protocol: Lipophilicity (Log P) will be determined using the water:octanol method. Briefly, the water:octanol (1:1) solution containing the ^89Zr-complex (0.19 MBq) will be vortexed (5 min) and then centrifuged (5 minutes at 17,000 rpm). After separation, aliquots from each layer will be counted separately in the gamma counter, and Log P will be calculated as the ratio of counts in the octanol fraction to counts in the aqueous fraction. […] The different pH environments will be meant to reflect the pH environments in normal blood (pH 7) or the lysosome (pH 5). Samples will be analyzed over the course of 7 days using radio-TLC and radio-HPLC.
# Based upon our EDTA challenge studies, the order of ^89Zr complex stability can be described as ^89Zr-DOTA>>^89Zr-DOTP>^89Zr-DOTAM>^89Zr-DFO.
# [2] = DTPA challenge, in vitro stability (radio-TLC); assay type: physicochemical; conditions: 50 mM DTPA, n = 3
# Protocol: (§1) Lipophilicity (Log P) will be determined using the water:octanol method. Briefly, the water:octanol (1:1) solution containing the ^89Zr-complex (0.19 MBq) will be vortexed (5 min) and then centrifuged (5 minutes at 17,000 rpm). After separation, aliquots from each layer will be counted separately in the gamma counter, and Log P will be calculated as the ratio of counts in the octanol fraction to counts in the aqueous fraction. In vitro stability will be determined by incubating each ^89Zr complex at 37° C. in the presence 500 μL of DTPA (50 mM, pH 7 or pH 5), 500 μL of EDTA (50 mM, pH 7 or pH 5), or 500 μL of human serum (at 37° C.). The different pH environments will be meant to reflect the pH environments in normal blood (pH 7) or the lysosome (pH 5). Samples will be analyzed over the course of 7 days using radio-TLC and radio-HPLC.
# [3] = Human serum stability (radio-TLC/ITLC, size exclusion chromatography); assay type: in vitro ADME; conditions: for In vitro stability (Radio-TLC): Serum, n = 3; for degradation in human serum (radio-ITLC): human serum proteins, 7 days at 37° C.
# Protocol: as §1
# To further characterize the stability of Zr-tetraazamacrocycle complexes and preliminarily assess their suitability for in vivo applications, each radiometal complex was incubated with human serum proteins for 7 days at 37° C.
# Any ^89Zr transchelated to serum proteins is expected to be complexed by EDTA and move to the solvent front in this system.
# [4] = Metal competition studies (demetallation by excess metal salts); assay type: physicochemical; conditions: for complex remaining intact: 7 days
# Protocol: Tetraazamacrocycles can chelate numerous, biologically relevant metal cations, and this property can potentially create a second mechanism for ^89Zr^4+ dissociation from its chelator in vivo. To assess the ability of the Zr-complexes to resist demetallation by another metal cation, metal competition studies were performed, in which the radiometal complex was mixed with an excess concentration of metal salts.
# [5] = Acute in vivo biodistribution of ^89Zr-complexes in normal mice; design: species or system NIH Swiss mice; conditions: for radioactivity retention in bone tissue over time: up to 72 h
# Protocol: NIH Swiss mice (n=6/time point) will be injected with the ^89Zr-AMC (0.56 MBq (15 μCi)), and then sacrificed at 1, 4, 24, 48 and 72 h post-injection (p.i.). Organs of interest will be removed, weighed and counted on a gamma counter. Percent injected dose per gram (% ID/g) and percent injected dose per organ (% ID/organ) will be counted and compared to a weighed, counted standard for all groups.
# The in vivo stability of ^89Zr-DOTA, ^89Zr-DOTP, and ^89Zr-DOTAM were then evaluated in acute biodistribution studies using female NIH Swiss mice (6-8 wk old, n=6). […] While surfactant was used in the injection formulation for biodistribution studies, it is hypothesized that once in the blood stream, ^89Zr-DOTAM aggregates with serum proteins, which are deposited in these tissues during circulation.
# [6] = Small animal PET imaging in normal mice; assay type: in vivo; conditions: for radioactivity at 4 h (static PET): 4 h after injection; for radioactivity at 24 h (static PET): 24 h after injection; for excretion route (PET): mouse, in vivo
# Protocol: Small animal PET/CT imaging will be conducted on the ^89Zr-AMCs identified from studies described above and in vivo biodistribution studies. NIH Swiss mice (n=6/cohort) will be injected with either ^89ZrCl4, ^89Zr-DFO (11 MBq (300 μCi)) or ^89Zr-AMC and imaged using 1 h dynamic scanning followed by static imaging at 4, 24, 48 h and 72 h p.i. […] All PET images will be co-registered with CT, to (a) allow more accurate selection of regions of interest to correspond with anatomy described by CT, and (b) reduce inaccuracies that result from partial volume effects, which can result in falsely low standard uptake values (SUVs) during data analysis. SUVs and the corresponding % ID/g will be determined from the co-registered PET/CT images using the formula SUV=[nCi/cc×animal weight/injected dose], and correlated to the biodistribution data.
# Normal mice were injected with ^89Zr-DFO and ^89Zr-DOTA and dynamic PET imaging done from 0-60 minutes, followed by static imaging at 2, 4, and 24 hours after injection.
# [7] = EDTA challenge, in vitro stability (radio-TLC); assay type: physicochemical; conditions: 50 mM EDTA, pH 5.5, n = 3
# [8] = In vitro solution behaviour (aggregation/precipitation); assay type: physicochemical; conditions: unless a low concentration of surfactant was included
# [9] = Lipophilicity (log P), water/octanol partition method; assay type: physicochemical
# Protocol: as §1
Structure (SMILES),order of ^89Zr complex stability [1],"In vitro stability (Radio-TLC) ([2]; pH 5.5, 1 h)","In vitro stability (Radio-TLC) ([2]; pH 5.5, 7 d)","In vitro stability (Radio-TLC) ([2]; pH 7.0, 1 h)","In vitro stability (Radio-TLC) ([2]; pH 7.0, 7 d)",In vitro stability (Radio-TLC) ([3]; 1 h),In vitro stability (Radio-TLC) ([3]; 7 d),degradation in human serum (radio-ITLC) [3],"blood clearance ([5]; normal mice, n=6/group)",radioactivity retention in bone tissue over time [5],radioactivity at 4 h (static PET) [6],radioactivity at 24 h (static PET) [6],excretion route (PET) [6],In vitro stability (Radio-TLC) ([7]; 1 h),In vitro stability (Radio-TLC) ([7]; 7 d),Lipophilicity (log P) [9],further results
"CC(=O)N([O-])CCCCCNC(=O)CCC(=O)N([O-])CCCCCNC(=O)CCC(=O)N([O-])CCCCCN.[89Zr+4] [^89Zr-DFO, reference compound]",^89Zr-DOTA>>^89Zr-DOTP>^89Zr-DOTAM>^89Zr-DFO,7.3 ± 0.8%,0%,90.3 ± 0.5%,40.6 ± 0.5%,100%,99.3 ± 0.1%,no noticeable degradation,rapid blood clearance,increases over time,more radioactivity accumulated in the kidneys,still visible in static images,excreted renally,6.3 ± 0.8%,0%,–,"loss of metal ions in EDTA challenge ([1]; 1000-fold excess of EDTA, after 3 h): completely lost metal ions; complex remaining intact ([4]; challenged with Fe^3+): 33.9%; complex remaining intact ([4]; challenged with Ga^3+): 72.6%"
NC(=O)CN1CCN(CC(N)=O)CCN(CC(N)=O)CCN(CC(N)=O)CC1.[89Zr+4] [^89Zr-DOTAM],^89Zr-DOTA>>^89Zr-DOTP>^89Zr-DOTAM>^89Zr-DFO,–,–,–,–,–,–,no noticeable degradation,–,–,–,–,–,–,–,–,"radioactivity retained in liver and spleen ([5]; female NIH Swiss mice, not excreted over 72 hour time course): retained elevated levels of radioactivity in liver and spleen tissues; behaviour in solution in vitro [8]: aggregated and precipitated out of solution"
O=C([O-])CN1CCN(CC(=O)[O-])CCN(CC(=O)[O-])CCN(CC(=O)[O-])CC1.[89Zr+4] [^89Zr-DOTA],^89Zr-DOTA>>^89Zr-DOTP>^89Zr-DOTAM>^89Zr-DFO,100%,100%,100%,100%,100%,100%,no noticeable degradation,rapid blood clearance,remained low with no statistically significant changes at any time point,nearly all the radioactivity was excreted,barely above background levels,excreted renally,100%,100%,most hydrophilic characteristics,"transchelation in EDTA challenge ([1]; 100-, 500-, and 1000-fold excess of EDTA at pH 5 or pH 7 over 7 days): did not experience transchelation; demetallation in metal competition ([4]; excess concentration of metal salts, 7-day experiment): No demetallation; reduction in radioactivity accumulation in the liver, kidney, and bone ([5]; 72 hours, pilot data): ≥ 10%; radioactivity retained in blood, liver, kidney and bone compared to ^89Zr-DOTP ([5]; intravenous injection): retained significantly less radioactivity in their blood, liver, kidney and bone tissue; radioactivity retained in liver, kidney and bone compared to ^89Zr-DFO ([5]; normal mice, n=6/group): lower radioactivity retention in liver, kidney, and bone tissues; also recorded: retained less radioactivity in the liver, kidney and bone; radioactivity in kidney and bone compared to ^89Zr-DFO (PET) ([6]; dynamic PET 0-60 minutes): much lower"
O=P([O-])(O)CN1CCN(CP(=O)([O-])O)CCN(CP(=O)([O-])O)CCN(CP(=O)([O-])O)CC1.[89Zr+4] [^89Zr-DOTP],^89Zr-DOTA>>^89Zr-DOTP>^89Zr-DOTAM>^89Zr-DFO,–,–,–,–,–,–,no noticeable degradation,–,–,–,–,–,–,–,most hydrophilic characteristics,bone retention compared to ^89Zr-DFO ([5]; n=6/group): Bone retention is higher; radioactivity retained in liver and kidney compared to ^89Zr-DFO ([5]; n=6/group): retained less radioactivity in the liver and kidney
"[Cl][89Zr]([Cl])([Cl])[Cl] [^89ZrCl4, reference compound]",–,–,–,–,–,–,–,–,–,–,–,–,–,–,–,–,association with serum proteins (size exclusion chromatography) ([3]; unchelated ^89Zr control): found to be associated with serum proteins
